Key:
PRMT5 [1] = molecular target: T1, PRMT5 (Homo sapiens, UniProt O14744); assay: PRMT5 biochemical IC50 assay with SAM as cofactor; settings: PRMT5, SAM as cofactor; read-out: SAM IC50
T1 construct: purchased Viva (custom protein)

PRMT5 [2] = molecular target: T1, PRMT5; assay: PRMT5 biochemical IC50 assay with no cofactor; settings: PRMT5, no cofactor
Excerpt: Table 1 indicates IC50 values (μM) against PRMT5 for exemplary compounds in the presence of SAM as cofactor, with no cofactor, and with MTA as cofactor, respectively (columns 4-6). […] Ki values can be calculated from the IC50 values as described in the Examples section. As detailed in the Examples section, for the assay performed in the presence of SAM, IC50=Ki×1.5 (Ki=IC50/1.5).

PRMT5 [3] = molecular target: T1, PRMT5; assay: PRMT5 biochemical IC50 assay with MTA as cofactor; settings: PRMT5, MTA as cofactor; read-out: MTA IC50
[4] = test system: HAP1 MTAP-intact cell line; assay: SDMA in-cell western assay, HAP1 MTAP-intact; type: cell-based; settings: Homo sapiens, HAP1, SDMA in-cell western, HAP1 MTAP-intact; read-out: MTAP HAP1 intact IC50
Outline: (§1)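 Compounds were tested in HAP1 cells differing only in MTAP status (endogenous expression versus null). Cellular SDMA levels were then measured by in-cell western, giving an IC50 in each background.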

[5] = test system: HAP1 MTAP-deleted cell line; assay: SDMA in-cell western assay, HAP1 MTAP-deleted; type: cell-based; settings: for IC50: HAP1 MTAP-deleted
Outline: as §1

[6] = test system: HAP1 MTAP-deleted cell line; assay: Viability assay, MTAP-deleted cell line; type: cell-based; settings: read-out: HAP1 MTAP deleted viability
Excerpt: Table 1 additionally indicates IC50 values in a viability assay for the MTAP-deleted cell line (column 10), indicating the effect of treatment with compound on cell survival.

[7] = Homo sapiens, HAP1, SDMA in-cell western, read-out: HAP1 MTAP deleted IC50
[8] = IC50 ratio HAP1 MTAP-intact / HAP1 MTAP-deleted, SDMA in-cell western
[9] = Homo sapiens, HAP1, viability assay, HAP1 MTAP-deleted
[10] = read-out: No Cofactor/ rel IC50
[11] = Homo sapiens, HAP1, SDMA in-cell western, read-out: HAP 1 MTAP deleted IC50
[12] = Homo sapiens, HAP1, viability, HAP1 MTAP-deleted cell line
[13] = Homo sapiens, HAP1, viability assay, MTAP-deleted cell line
[14] = IC50 ratio HAP1 MTAP-intact vs HAP1 MTAP-deleted, SDMA in-cell western
[15] = Homo sapiens, HAP1, viability IC50, MTAP-deleted cell line

T1 sequence (O14744 whole entry): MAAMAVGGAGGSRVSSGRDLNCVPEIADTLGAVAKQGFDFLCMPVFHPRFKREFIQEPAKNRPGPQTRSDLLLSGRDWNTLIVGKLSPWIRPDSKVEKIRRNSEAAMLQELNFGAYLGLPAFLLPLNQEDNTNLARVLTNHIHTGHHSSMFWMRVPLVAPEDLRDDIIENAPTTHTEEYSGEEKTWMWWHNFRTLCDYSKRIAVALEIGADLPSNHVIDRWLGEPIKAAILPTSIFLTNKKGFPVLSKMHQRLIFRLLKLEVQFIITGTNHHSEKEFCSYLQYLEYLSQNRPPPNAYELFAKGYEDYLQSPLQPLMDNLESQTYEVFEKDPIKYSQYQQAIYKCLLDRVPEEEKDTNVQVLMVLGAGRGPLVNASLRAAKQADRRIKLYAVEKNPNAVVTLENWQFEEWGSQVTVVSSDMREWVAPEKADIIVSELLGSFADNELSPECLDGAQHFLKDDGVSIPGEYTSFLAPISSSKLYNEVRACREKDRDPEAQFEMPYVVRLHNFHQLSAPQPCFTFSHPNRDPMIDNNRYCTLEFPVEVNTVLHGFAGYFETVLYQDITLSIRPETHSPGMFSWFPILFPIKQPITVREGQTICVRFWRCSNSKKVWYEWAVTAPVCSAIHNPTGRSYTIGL
T1 sequence (Q9BQA1 whole entry partner): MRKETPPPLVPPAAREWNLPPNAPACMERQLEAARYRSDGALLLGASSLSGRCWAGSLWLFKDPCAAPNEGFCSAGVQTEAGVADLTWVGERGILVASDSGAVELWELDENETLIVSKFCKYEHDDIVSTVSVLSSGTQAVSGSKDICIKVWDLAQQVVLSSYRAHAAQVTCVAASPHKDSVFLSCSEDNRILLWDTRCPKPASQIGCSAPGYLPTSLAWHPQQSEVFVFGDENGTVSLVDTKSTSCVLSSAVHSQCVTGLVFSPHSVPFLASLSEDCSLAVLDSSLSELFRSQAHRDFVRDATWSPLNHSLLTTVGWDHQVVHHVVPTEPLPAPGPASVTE

SMILES | IC50 (PRMT5 [1]) | IC50 (PRMT5 [2]; read-out: No Cofactor/rel IC50) | IC50 (PRMT5 [3]) | IC50 [4] | IC50 [5, 7] | IC50 (PRMT5 [2]; [10]) | IC50 [5, 11] | IC50 ([5]; SDMA in-cell western, read-out: HAP 1 MTAP deleted IC50) | MTAP intact/deleted ratio [5, 8] | IC50 [6, 9] | IC50 [6, 12] | IC50 [6, 13] | MTAP intact/deleted ratio [5, 14] | IC50 [6, 15] | IC50 ([6]; viability assay, MTAP-deleted cell line)
Cc1cc(NC(=O)C(=O)N2C[C@H](C)CC[C@H]2C2CCCNC2)cnc1N (mixture of isomers) [Compound 744, N-(6-amino-5-methyl-3-pyridyl)-2-[(2R,5S)-5-methyl-2-(3-piperidyl)-1-piperidyl]-2-oxo-acetamide] | > 500 nM | > 500 nM | 50 to 500 nM | > 1000 nM | > 1000 nM | – | – | – | C (an IC50 ratio of less than 3 fold) | > 10000 nM | – | – | – | – | –
Cc1cc(NC(=O)C(=O)N2C[C@H](C)CC[C@H]2c2ccc(S(C)(=O)=O)cc2)cnc1N (racemic) [Compound 643, N-(6-amino-5-methyl-3-pyridyl)-2-[(2R,5S)-5-methyl-2-(4-methylsulfonylphenyl)-1-piperidyl]-2-oxo-acetamide] | 50 to 500 nM | 50 to 500 nM | 50 to 500 nM | > 1000 nM | – | – | 100 to 1000 nM | – | C (an IC50 ratio of less than 3 fold) | – | – | – | – | 1000 to 10000 nM | –
NC(=O)c1cncc(NC(=O)C(=O)N2CCCCC2C2CCCCC2)c1 (single isomer, unassigned) [Compound 108, 5-(2-(2-cyclohexylpiperidin-1-yl)-2-oxoacetamido)nicotinamide] | > 500 nM | – | > 500 nM | > 1000 nM | – | > 500 nM | – | > 1000 nM | C (an IC50 ratio of less than 3 fold) | – | – | – | – | – | > 10000 nM
COc1ncc(NC(=O)C(=O)N2C[C@@H](C)CC[C@@H]2C2CCCCC2)cc1C(N)=O (single isomer, unassigned) [Compound 369] | 50 to 500 nM | 50 to 500 nM | < 50 nM | > 1000 nM | 100 to 1000 nM | – | – | – | A (an IC50 ratio greater than or equal to 10 fold) | – | – | 1000 to 10000 nM | – | – | –
Cc1cc(NC(=O)C(=O)N2CCCCC2c2cccc3c2CC(=O)N3)cnc1N (centres unmarked) [Compound 116, N-(6-Amino-5-methyl-3-pyridyl)-2-oxo-2-[2-(2-oxoindolin-4-yl)-1-piperidyl]acetamide] | 50 to 500 nM | – | 50 to 500 nM | > 1000 nM | – | > 500 nM | 100 to 1000 nM | – | A (an IC50 ratio greater than or equal to 10 fold) | – | – | > 10000 nM | – | – | –
Cc1cc(NC(=O)C(=O)N2C[C@@H](C)[C@H](C)C[C@H]2c2ccccc2)cnc1N (single isomer, unassigned) [Compound 313] | 50 to 500 nM | 50 to 500 nM | < 50 nM | > 1000 nM | < 100 nM | – | – | – | A (an IC50 ratio greater than or equal to 10 fold) | – | – | 1000 to 10000 nM | – | – | –
Cc1cc(NC(=O)C(=O)N2C[C@@H](C)CC[C@@H]2c2ccc3sc(-c4nccn4C)nc3c2)cnc1N [Compound 1186, N-(6-amino-5-methylpyridin-3-yl)-2-((2R,5S)-5-methyl-2-(2-(1-methyl-1H-imidazol-2-yl)benzo[d]thiazol-5-yl)piperidin-1-yl)-2-oxoacetamide] | 50 to 500 nM | < 50 nM | < 50 nM | < 100 nM | < 100 nM | – | – | – | – | – | – | < 1000 nM | A (an IC50 ratio greater than or equal to 10 fold) | – | –
COc1cc([C@@H]2CC[C@@H](C)CN2C(=O)C(=O)Nc2cncc(C(N)=O)c2)cnc1C(F)(F)F (racemic) [Compound 223, rac-5-{2-[(2R,5S)-2-[5-Methoxy-6-(trifluoromethyl)pyridin-3-yl]-5-methylpiperidin-1-yl]-2-oxoacetamido}pyridine-3-carboxamide] | > 500 nM | > 500 nM | 50 to 500 nM | > 1000 nM | > 1000 nM | – | – | – | C (an IC50 ratio of less than 3 fold) | – | – | > 10000 nM | – | – | –
Cc1nc2cc([C@@H]3CC[C@@H](C)CN3C(=O)C(=O)Nc3cnc(N)c(C)c3)ccc2[nH]1 (single isomer, unassigned) [Compound 963] | > 500 nM | > 500 nM | > 500 nM | > 1000 nM | – | – | > 1000 nM | – | B (an IC50 ratio greater than or equal to 3 fold but lower than 10 fold) | – | – | > 10000 nM | – | – | –
Cc1cc(NC(=O)C(=O)N2C[C@@H](C)CC[C@@H]2c2ccc3c(c2)C(=O)NC3)cnc1N (single isomer, unassigned) [Compound 657] | 50 to 500 nM | < 50 nM | < 50 nM | 100 to 1000 nM | – | – | < 100 nM | – | A (an IC50 ratio greater than or equal to 10 fold) | – | – | – | – | < 1000 nM | –
CCc1cc(NC(=O)C(=O)N2C[C@@H](C)C(F)(F)C[C@@H]2c2ccc(F)c(F)c2)cnc1N (single isomer, unassigned) [Compound 721] | 50 to 500 nM | < 50 nM | < 50 nM | > 1000 nM | < 100 nM | – | – | – | A (an IC50 ratio greater than or equal to 10 fold) | < 1000 nM | – | – | – | – | –

Now from value to compound, other results behind:

IC50 (PRMT5 [1]) | IC50 (PRMT5 [2]; read-out: No Cofactor/rel IC50) | IC50 (PRMT5 [3]) | IC50 [4] | IC50 [5, 7] | IC50 (PRMT5 [2]; [10]) | IC50 [5, 11] | IC50 ([5]; SDMA in-cell western, read-out: HAP 1 MTAP deleted IC50) | SMILES | MTAP intact/deleted ratio [5, 8] | IC50 [6, 9] | IC50 [6, 12] | IC50 [6, 13] | MTAP intact/deleted ratio [5, 14] | IC50 [6, 15] | IC50 ([6]; viability assay, MTAP-deleted cell line)
< 50 nM | – | < 50 nM | < 100 nM | – | < 50 nM | < 100 nM | – | CCc1cc(NC(=O)C(=O)N2C[C@@H](C)CC[C@@H]2c2ccc3sc(C45CC(N(C)C)(C4)C5)nc3c2)cnc1N [Compound 1404, N-(6-amino-5-ethylpyridin-3-yl)-2-((2R,5S)-2-(2-(3-(dimethylamino)bicyclo[1.1.1]pentan-1-yl)benzo[d]thiazol-5-yl)-5-methylpiperidin-1-yl)-2-oxoacetamide] | A (an IC50 ratio greater than or equal to 10 fold) | – | < 1000 nM | – | – | – | –
50 to 500 nM | 50 to 500 nM | 50 to 500 nM | > 1000 nM | < 100 nM | – | – | – | C[C@@H]1CC[C@@H](c2ccc(Cl)c(F)c2)N(C(=O)C(=O)Nc2cncc(C(N)=O)c2)C1 (racemic) [Compound 327, rac-5-{2-[(2R,5S)-2-(4-Chloro-3-fluorophenyl)-5-methylpiperidin-1-yl]-2-oxoacetamido}pyridine-3-carboxamide] | A (an IC50 ratio greater than or equal to 10 fold) | – | – | 1000 to 10000 nM | – | – | –
50 to 500 nM | < 50 nM | < 50 nM | 100 to 1000 nM | < 100 nM | – | – | – | CCc1cc(NC(=O)C(=O)N2C[C@@H](C)CC[C@@H]2c2ccc3sc(-c4cccnc4)nc3c2)cnc1N [Compound 1200, N-(6-amino-5-ethylpyridin-3-yl)-2-((2R,5S)-5-methyl-2-(2-(pyridin-3-yl)benzo[d]thiazol-5-yl)piperidin-1-yl)-2-oxoacetamide] | – | – | – | < 1000 nM | A (an IC50 ratio greater than or equal to 10 fold) | – | –
50 to 500 nM | – | < 50 nM | 100 to 1000 nM | – | < 50 nM | < 100 nM | – | CCc1cc(NC(=O)C(=O)N2C[C@@H](C)CC[C@@H]2c2ccc3sc(CN(C)C(C)C)nc3c2)cnc1N [Compound 1303, N-(6-amino-5-ethylpyridin-3-yl)-2-((2R,5S)-2-(2-((isopropyl(methyl)amino)methyl)benzo[d]thiazol-5-yl)-5-methylpiperidin-1-yl)-2-oxoacetamide] | A (an IC50 ratio greater than or equal to 10 fold) | – | < 1000 nM | – | – | – | –
< 50 nM | – | < 50 nM | < 100 nM | – | < 50 nM | < 100 nM | – | CCc1cc(NC(=O)C(=O)N2C[C@@H](C)CC[C@@H]2c2ccc3sc(C4CCNCC4)nc3c2)cnc1N [Compound 1240, N-(6-amino-5-ethyl-3-pyridyl)-2-[(2R,5S)-5-methyl-2-[2-(4-piperidyl)-1,3-benzothiazol-5-yl]-1-piperidyl]-2-oxo-acetamide] | B (an IC50 ratio greater than or equal to 3 fold but lower than 10 fold) | – | < 1000 nM | – | – | – | –
< 50 nM | < 50 nM | < 50 nM | 100 to 1000 nM | < 100 nM | – | – | – | Cc1cc(NC(=O)C(=O)N2C[C@H](C)CC[C@H]2c2ccn(-c3cc[nH]n3)n2)cnc1N (single isomer, unassigned) [Compound 782] | A (an IC50 ratio greater than or equal to 10 fold) | < 1000 nM | – | – | – | – | –

Source: patent publication US11999727B2 (Tango Therapeutics, Inc., priority 2020, dated 2024)
